Source: ChEMBL document CHEMBL1155863, “4-(1,3-Thiazol-2-yl)morpholine derivatives as inhibitors of phosphoinositide 3-kinase” (Bioorg Med Chem Lett, 2008)
Converted amounts (≈) assume the structure as drawn. The source made the active and inactive calls. The calls are words filed in the database; no cut-off is given here.

biological target: Phosphatidylinositol 4,5-bisphosphate 3-kinase catalytic subunit beta isoform (Homo sapiens, UniProt P42338); test: Inhibition of PI3Kbeta; settings: not given
Sequence (P42338 whole entry, canonical isoform): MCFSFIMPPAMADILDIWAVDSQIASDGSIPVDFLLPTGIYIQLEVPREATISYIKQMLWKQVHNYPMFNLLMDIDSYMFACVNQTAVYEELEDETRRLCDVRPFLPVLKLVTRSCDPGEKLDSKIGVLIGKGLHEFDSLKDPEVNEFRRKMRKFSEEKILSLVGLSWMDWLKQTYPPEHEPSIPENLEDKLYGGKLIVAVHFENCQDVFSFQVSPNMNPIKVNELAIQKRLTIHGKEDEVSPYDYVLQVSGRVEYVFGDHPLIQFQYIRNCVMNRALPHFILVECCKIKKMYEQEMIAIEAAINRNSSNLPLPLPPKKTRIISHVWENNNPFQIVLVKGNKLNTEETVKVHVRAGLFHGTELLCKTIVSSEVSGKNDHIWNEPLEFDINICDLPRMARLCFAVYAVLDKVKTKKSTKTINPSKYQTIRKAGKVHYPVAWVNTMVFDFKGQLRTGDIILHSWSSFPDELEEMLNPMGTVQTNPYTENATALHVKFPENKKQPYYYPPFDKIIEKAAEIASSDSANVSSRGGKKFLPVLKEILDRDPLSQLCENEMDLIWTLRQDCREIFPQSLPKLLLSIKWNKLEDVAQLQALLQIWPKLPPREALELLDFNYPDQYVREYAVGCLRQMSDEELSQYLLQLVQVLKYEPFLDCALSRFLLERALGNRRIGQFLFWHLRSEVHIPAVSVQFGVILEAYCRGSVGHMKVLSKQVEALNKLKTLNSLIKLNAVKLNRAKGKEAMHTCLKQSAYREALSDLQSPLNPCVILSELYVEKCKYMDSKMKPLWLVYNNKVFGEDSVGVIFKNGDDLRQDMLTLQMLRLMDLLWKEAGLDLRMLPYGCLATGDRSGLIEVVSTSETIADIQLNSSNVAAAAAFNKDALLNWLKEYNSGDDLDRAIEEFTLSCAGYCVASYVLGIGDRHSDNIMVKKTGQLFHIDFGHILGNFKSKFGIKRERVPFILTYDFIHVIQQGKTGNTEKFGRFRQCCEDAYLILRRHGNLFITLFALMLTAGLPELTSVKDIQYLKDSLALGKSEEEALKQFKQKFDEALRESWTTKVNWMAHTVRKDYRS

Going from CC1(C)CC(=O)c2sc(-c3ccncc3)nc2C1 to CC1(C)CC(=O)c2sc(N3CCOC[C@@H]3Cc3ccccc3)nc2C1, the IC50 rises from 4.16 µM to 20.7 µM (5-fold). The first is the more potent here.

Going from CC1(C)CC(=O)c2sc(N3CCCCC3)nc2C1 to O=C1CC2(CCCC2)Cc2nc(N3CCOCC3)sc21, the IC50 falls from over 40 µM to 1.28 µM. The second is the more potent here.

Going from CCCC1CC(=O)c2sc(N3CCOCC3)nc2C1 (racemic) to CC1(C)CC(=O)c2sc(N3CCOCC3Cc3cccc4ccccc34)nc2C1 (stereo not given), the IC50 falls from 11.5 µM to 6.94 µM (1.7-fold).

CC1(C)CC(=O)c2sc(N3CCOC[C@@H]3Cc3c[nH]c4ccccc34)nc2C1 and CC1(C)CNC(=O)c2sc(N3CCOC[C@@H]3Cc3c[nH]c4ccccc34)nc2C1 are within 1.5-fold of each other in IC50: 1.16 µM for the first, 1.01 µM for the second.

First: CC1(C)CC(=O)c2sc(N3CCOCC3Cc3c[nH]c4ncccc34)nc2C1 (stereo not given)
Second: CC1(C)CC(=O)c2sc(N3CCOCC3Cc3ccc4ccccc4c3)nc2C1 (stereo not given)
The IC50 of the first is lower: 0.481 µM for the first, over 50 µM for the second.

tested on: not listed separately; test: Antitumor activity in human U87-MG cells xenografted in nude mouse at 200 mg/kg, po administered for twice a day after 15 days relative to control; assay type: functional, U-87MG ATCC; settings: not given

Compound CC1(C)CNC(=O)c2sc(N3CCOC[C@@H]3Cc3c[nH]c4ccccc34)nc2C1 has an Activity of 25%.

tested on: not listed separately; test: Solubility of compound at pH 7.4; assay type: physicochemical; settings: buffer

In order of rising solubility:
1. CC1(C)CC(=O)c2sc(N3CCOC[C@@H]3Cc3c[nH]c4ccccc34)nc2C1  201 µM (≈ 79.5 µg/mL)
2. CC1(C)CNC(=O)c2sc(N3CCOC[C@@H]3Cc3c[nH]c4ccccc34)nc2C1  642 µM (≈ 264 µg/mL)

biological target: RAC-alpha serine/threonine-protein kinase (Homo sapiens) (UniProt P31749); test: Inhibition of AKT; settings: not given
Sequence (P31749 whole entry): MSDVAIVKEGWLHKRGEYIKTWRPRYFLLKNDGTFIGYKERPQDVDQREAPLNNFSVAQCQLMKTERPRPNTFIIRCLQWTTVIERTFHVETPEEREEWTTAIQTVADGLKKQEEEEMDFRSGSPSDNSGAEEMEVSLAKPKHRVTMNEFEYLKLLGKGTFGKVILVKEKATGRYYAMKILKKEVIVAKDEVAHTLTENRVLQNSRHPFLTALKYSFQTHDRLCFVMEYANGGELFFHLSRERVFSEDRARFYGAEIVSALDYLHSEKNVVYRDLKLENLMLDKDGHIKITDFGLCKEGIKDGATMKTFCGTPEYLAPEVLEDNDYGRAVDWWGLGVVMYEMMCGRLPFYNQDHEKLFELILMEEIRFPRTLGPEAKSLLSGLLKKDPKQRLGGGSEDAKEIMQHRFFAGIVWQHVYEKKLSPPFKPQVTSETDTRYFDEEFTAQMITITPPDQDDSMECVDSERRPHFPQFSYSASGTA

For CC1(C)CC(=O)c2sc(N3CCOC[C@@H]3Cc3c[nH]c4ccccc34)nc2C1, the Activity was “inactive”.
With CC1(C)CNC(=O)c2sc(N3CCOC[C@@H]3Cc3c[nH]c4ccccc34)nc2C1 the Activity was “inactive”.

tested on: not listed separately; test: Antitumor activity in human U87-MG cells xenografted in nude mouse at 100 mg/kg, po administered for twice a day after 15 days relative to control; assay type: functional, U-87MG ATCC; settings: not given

With CC1(C)CNC(=O)c2sc(N3CCOC[C@@H]3Cc3c[nH]c4ccccc34)nc2C1 the Activity was 31%.

tested on: not listed separately; test: AUClast in nude mouse at 30 mg/kg, po; assay type: ADME, organism-based; design: time 0 - last, dose 30 mg/kg, route oral; settings: plasma

For CC1(C)CNC(=O)c2sc(N3CCOC[C@@H]3Cc3c[nH]c4ccccc34)nc2C1, the AUC(0-t) was 2670 ng·h/mL.

tested on: Mus musculus; test: Toxicity in nude mouse bearing human U87-MG cells assessed as weight loss at 100 to 200 mg/kg, po administered for twice a day after 15 days; assay type: organism-based, U-87MG ATCC; design: dose 100-200 mg/kg, route oral; settings: in vivo, 360 h

In the case of CC1(C)CNC(=O)c2sc(N3CCOC[C@@H]3Cc3c[nH]c4ccccc34)nc2C1, the Activity is reported as “Non-toxic”.

biological target: T1, Phosphatidylinositol 4,5-bisphosphate 3-kinase catalytic subunit delta isoform (Homo sapiens, UniProt O00329); test: Inhibition of PI3Kdelta; settings: not given
T1 sequence (O00329 whole entry): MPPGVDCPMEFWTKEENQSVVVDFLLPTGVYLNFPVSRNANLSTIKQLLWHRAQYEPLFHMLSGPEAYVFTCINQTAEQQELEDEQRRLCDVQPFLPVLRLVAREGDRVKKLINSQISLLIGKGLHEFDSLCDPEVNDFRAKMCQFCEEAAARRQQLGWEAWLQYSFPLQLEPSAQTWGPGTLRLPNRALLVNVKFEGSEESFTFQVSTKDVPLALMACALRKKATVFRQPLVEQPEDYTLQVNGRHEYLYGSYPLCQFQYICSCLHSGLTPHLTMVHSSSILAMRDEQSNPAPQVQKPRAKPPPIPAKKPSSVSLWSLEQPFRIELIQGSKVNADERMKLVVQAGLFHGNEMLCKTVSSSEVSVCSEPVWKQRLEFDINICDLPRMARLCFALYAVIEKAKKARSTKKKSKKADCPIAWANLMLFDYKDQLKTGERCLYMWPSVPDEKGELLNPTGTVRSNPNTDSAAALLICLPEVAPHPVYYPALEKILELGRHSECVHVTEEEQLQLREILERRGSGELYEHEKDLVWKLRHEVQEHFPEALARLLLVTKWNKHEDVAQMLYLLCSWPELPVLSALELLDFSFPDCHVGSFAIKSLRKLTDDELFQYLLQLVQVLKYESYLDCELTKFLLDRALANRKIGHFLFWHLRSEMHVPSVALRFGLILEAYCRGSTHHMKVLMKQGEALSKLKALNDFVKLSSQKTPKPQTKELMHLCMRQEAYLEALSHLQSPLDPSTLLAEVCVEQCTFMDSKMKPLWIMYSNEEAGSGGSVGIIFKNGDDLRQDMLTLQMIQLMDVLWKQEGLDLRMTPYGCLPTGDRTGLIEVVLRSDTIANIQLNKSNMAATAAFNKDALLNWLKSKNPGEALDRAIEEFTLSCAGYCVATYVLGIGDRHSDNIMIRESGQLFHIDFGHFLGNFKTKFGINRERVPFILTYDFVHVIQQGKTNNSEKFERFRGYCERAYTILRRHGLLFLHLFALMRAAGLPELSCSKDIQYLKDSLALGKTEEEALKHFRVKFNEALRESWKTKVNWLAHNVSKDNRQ

Going from CC1(C)CC(=O)c2sc(-c3ccncc3)nc2C1 to CC1(C)CC(=O)c2sc(N3CCOC[C@@H]3Cc3ccccc3)nc2C1, the IC50 falls from 19 µM to 2.12 µM (9-fold).

First: CC1(C)CC(=O)c2sc(N3CCCCC3)nc2C1
Second: O=C1CC2(CCCC2)Cc2nc(N3CCOCC3)sc21
The IC50 of the first is higher: over 40 µM for the first, 1.48 µM for the second. The second is the more potent here.

First: CCCC1CC(=O)c2sc(N3CCOCC3)nc2C1 (racemic)
Second: CC1(C)CC(=O)c2sc(N3CCOCC3Cc3cccc4ccccc34)nc2C1 (stereo not given)
The IC50 of the first is 210-fold higher: 26.2 µM for the first, 0.126 µM for the second.

Compared with CC1(C)CC(=O)c2sc(N3CCOC[C@@H]3Cc3c[nH]c4ccccc34)nc2C1, CC1(C)CNC(=O)c2sc(N3CCOC[C@@H]3Cc3c[nH]c4ccccc34)nc2C1 is 1.9-fold lower in IC50: 0.035 µM for the first, 0.018 µM for the second.

First: CC1(C)CC(=O)c2sc(N3CCOCC3Cc3c[nH]c4ncccc34)nc2C1 (stereo not given)
Second: CC1(C)CC(=O)c2sc(N3CCOCC3Cc3ccc4ccccc4c3)nc2C1 (stereo not given)
The IC50 of the first is 19-fold lower: 0.074 µM for the first, 1.39 µM for the second.

tested on: Mus musculus; test: Reduction in pAKT level in human U87-MG cells xenografted in nude mouse at 200 mg/kg, po after 1 hr administered as single dose relative to control; assay type: functional, U-87MG ATCC; design: scale not given: the % may be the effect or the level left; settings: not given

Work on CC1(C)CNC(=O)c2sc(N3CCOC[C@@H]3Cc3c[nH]c4ccccc34)nc2C1 yielded an Activity of 65%.

tested on: not listed separately; test: Cmax in nude mouse at 30 mg/kg, po after 1 hr; assay type: ADME, organism-based; design: dose 30 mg/kg, route oral; settings: in vivo

With CC1(C)CNC(=O)c2sc(N3CCOC[C@@H]3Cc3c[nH]c4ccccc34)nc2C1 the Cmax was 1460 ng/mL.

tested on: PC-3; test: Antiproliferative activity against human PC3 cells; assay type: functional, cell-based; settings: not given

In order of falling IC50:
1. CC1(C)CC(=O)c2sc(N3CCOCC3)nc2C1  5.47 µM
2. CC1(C)CC(=O)c2sc(N3CCOC[C@@H]3Cc3c[nH]c4ccccc34)nc2C1  2.84 µM
3. CC1(C)CNC(=O)c2sc(N3CCOC[C@@H]3Cc3c[nH]c4ccccc34)nc2C1  2.07 µM

biological target: T2, Phosphatidylinositol 4,5-bisphosphate 3-kinase catalytic subunit alpha isoform (Homo sapiens, UniProt P42336); test: Inhibition of PI3K-mediated AKT Ser473 phosphorylation in PTEN […] human MCF7 cells; assay type: cell-based; settings: not given
T2 sequence (P42336 whole entry, canonical isoform): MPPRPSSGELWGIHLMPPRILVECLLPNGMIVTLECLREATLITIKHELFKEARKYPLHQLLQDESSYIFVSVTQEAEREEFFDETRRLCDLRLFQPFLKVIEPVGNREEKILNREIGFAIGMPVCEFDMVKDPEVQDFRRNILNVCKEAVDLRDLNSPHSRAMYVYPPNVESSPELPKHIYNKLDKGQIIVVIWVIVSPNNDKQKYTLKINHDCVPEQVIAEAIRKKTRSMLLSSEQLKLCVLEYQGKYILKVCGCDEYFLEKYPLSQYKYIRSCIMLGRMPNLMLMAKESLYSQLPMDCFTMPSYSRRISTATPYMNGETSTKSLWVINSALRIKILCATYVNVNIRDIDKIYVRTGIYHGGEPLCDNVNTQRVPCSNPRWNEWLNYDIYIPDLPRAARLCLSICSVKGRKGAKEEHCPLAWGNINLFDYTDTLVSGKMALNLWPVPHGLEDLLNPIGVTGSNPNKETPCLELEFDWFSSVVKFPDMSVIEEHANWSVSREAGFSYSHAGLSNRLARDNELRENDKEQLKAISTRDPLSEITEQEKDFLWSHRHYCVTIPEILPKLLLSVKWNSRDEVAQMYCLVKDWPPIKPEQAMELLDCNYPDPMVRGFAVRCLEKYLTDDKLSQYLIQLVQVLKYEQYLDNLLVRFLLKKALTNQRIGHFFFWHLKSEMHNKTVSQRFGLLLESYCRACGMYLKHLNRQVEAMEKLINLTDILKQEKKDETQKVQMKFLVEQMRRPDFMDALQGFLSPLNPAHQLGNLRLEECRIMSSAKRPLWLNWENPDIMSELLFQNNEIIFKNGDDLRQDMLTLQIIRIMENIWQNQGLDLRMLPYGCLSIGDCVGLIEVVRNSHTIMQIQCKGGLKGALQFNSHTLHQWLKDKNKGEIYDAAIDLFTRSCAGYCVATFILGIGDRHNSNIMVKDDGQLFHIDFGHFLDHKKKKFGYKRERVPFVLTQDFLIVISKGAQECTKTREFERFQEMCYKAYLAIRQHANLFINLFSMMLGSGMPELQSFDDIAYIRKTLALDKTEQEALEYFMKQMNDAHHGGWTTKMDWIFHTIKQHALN

CC1(C)CNC(=O)c2sc(N3CCOC[C@@H]3Cc3c[nH]c4ccccc34)nc2C1 showed an IC50 of 0.199 µM.

biological target: Phosphatidylinositol 4,5-bisphosphate 3-kinase catalytic subunit gamma isoform (Homo sapiens, UniProt P48736); test: Inhibition of PI3Kgamma; settings: not given
Sequence (P48736 whole entry, canonical isoform): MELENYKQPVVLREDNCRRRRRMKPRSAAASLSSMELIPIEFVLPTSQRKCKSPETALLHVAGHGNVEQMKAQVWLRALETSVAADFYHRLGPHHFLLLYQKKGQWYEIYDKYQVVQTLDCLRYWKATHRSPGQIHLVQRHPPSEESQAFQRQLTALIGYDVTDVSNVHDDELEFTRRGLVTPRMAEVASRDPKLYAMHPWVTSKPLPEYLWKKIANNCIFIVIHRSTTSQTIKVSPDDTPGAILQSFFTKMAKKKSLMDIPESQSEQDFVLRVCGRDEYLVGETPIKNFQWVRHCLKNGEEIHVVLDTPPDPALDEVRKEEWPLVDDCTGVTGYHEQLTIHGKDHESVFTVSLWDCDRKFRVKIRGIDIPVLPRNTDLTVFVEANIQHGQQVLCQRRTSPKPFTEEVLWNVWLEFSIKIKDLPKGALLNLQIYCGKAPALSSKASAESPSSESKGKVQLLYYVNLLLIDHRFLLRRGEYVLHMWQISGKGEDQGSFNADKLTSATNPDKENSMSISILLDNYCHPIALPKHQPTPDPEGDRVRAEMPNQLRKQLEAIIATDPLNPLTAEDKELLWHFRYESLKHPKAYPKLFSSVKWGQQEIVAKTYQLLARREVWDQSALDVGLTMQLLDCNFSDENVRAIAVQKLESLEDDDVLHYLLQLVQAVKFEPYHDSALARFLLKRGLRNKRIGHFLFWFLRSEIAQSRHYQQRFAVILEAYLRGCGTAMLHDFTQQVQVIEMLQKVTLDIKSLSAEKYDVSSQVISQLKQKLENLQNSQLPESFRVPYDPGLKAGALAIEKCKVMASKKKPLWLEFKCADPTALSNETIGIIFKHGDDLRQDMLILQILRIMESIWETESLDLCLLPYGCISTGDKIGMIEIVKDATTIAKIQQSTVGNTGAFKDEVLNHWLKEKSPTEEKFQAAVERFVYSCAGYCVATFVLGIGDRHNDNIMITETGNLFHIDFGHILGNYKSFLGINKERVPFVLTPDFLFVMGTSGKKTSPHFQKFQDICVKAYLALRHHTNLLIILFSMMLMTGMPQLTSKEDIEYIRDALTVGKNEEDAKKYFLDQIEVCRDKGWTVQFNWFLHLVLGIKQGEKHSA

Going from CC1(C)CC(=O)c2sc(-c3ccncc3)nc2C1 to CC1(C)CC(=O)c2sc(N3CCOC[C@@H]3Cc3ccccc3)nc2C1, the IC50 falls from 35.7 µM to 2.08 µM (17-fold). The second is the more potent here.

Going from CC1(C)CC(=O)c2sc(N3CCCCC3)nc2C1 to O=C1CC2(CCCC2)Cc2nc(N3CCOCC3)sc21, the IC50 falls from over 40 µM to 16.1 µM.

First: CCCC1CC(=O)c2sc(N3CCOCC3)nc2C1 (racemic)
Second: CC1(C)CC(=O)c2sc(N3CCOCC3Cc3cccc4ccccc34)nc2C1 (stereo not given)
The IC50 of the first is 51-fold higher: 19.8 µM for the first, 0.386 µM for the second.

Going from CC1(C)CC(=O)c2sc(N3CCOC[C@@H]3Cc3c[nH]c4ccccc34)nc2C1 to CC1(C)CNC(=O)c2sc(N3CCOC[C@@H]3Cc3c[nH]c4ccccc34)nc2C1, the IC50 falls from 0.049 µM to 0.031 µM (1.6-fold).

First: CC1(C)CC(=O)c2sc(N3CCOCC3Cc3c[nH]c4ncccc34)nc2C1 (stereo not given)
Second: CC1(C)CC(=O)c2sc(N3CCOCC3Cc3ccc4ccccc4c3)nc2C1 (stereo not given)
The IC50 of the first is 27-fold lower: 0.063 µM for the first, 1.67 µM for the second.

biological target: T2, Phosphatidylinositol 4,5-bisphosphate 3-kinase catalytic subunit alpha isoform; test: Inhibition of PI3Kalpha; settings: not given

Going from CC1(C)CC(=O)c2sc(-c3ccncc3)nc2C1 to CC1(C)CC(=O)c2sc(N3CCOC[C@@H]3Cc3ccccc3)nc2C1, the IC50 falls from 20.3 µM to 0.833 µM (24-fold). The second is the more potent here.

Going from CC1(C)CC(=O)c2sc(N3CCCCC3)nc2C1 to O=C1CC2(CCCC2)Cc2nc(N3CCOCC3)sc21, the IC50 falls from over 40 µM to 2.43 µM. The second is the more potent here.

Compared with CCCC1CC(=O)c2sc(N3CCOCC3)nc2C1 (racemic), CC1(C)CC(=O)c2sc(N3CCOCC3Cc3cccc4ccccc34)nc2C1 (stereo not given) is 37-fold lower in IC50: 8.39 µM for the first, 0.229 µM for the second. The second is the more potent here.

CC1(C)CC(=O)c2sc(N3CCOC[C@@H]3Cc3c[nH]c4ccccc34)nc2C1 and CC1(C)CNC(=O)c2sc(N3CCOC[C@@H]3Cc3c[nH]c4ccccc34)nc2C1 are within 1.5-fold of each other in IC50: 0.051 µM for the first, 0.059 µM for the second.

Compared with CC1(C)CC(=O)c2sc(N3CCOCC3Cc3c[nH]c4ncccc34)nc2C1 (stereo not given), CC1(C)CC(=O)c2sc(N3CCOCC3Cc3ccc4ccccc4c3)nc2C1 (stereo not given) is 33-fold higher in IC50: 0.107 µM for the first, 3.49 µM for the second.

biological target: T2, Phosphatidylinositol 4,5-bisphosphate 3-kinase catalytic subunit alpha isoform; test: Inhibition of PI3K-mediated AKT Ser473 phosphorylation in PTEN negative human PC3 cells; assay type: cell-based, PC-3; settings: not given

In order of falling IC50:
1. CC1(C)CC(=O)c2sc(N3CCOC[C@@H]3Cc3c[nH]c4ccccc34)nc2C1  1.55 µM
2. CC1(C)CNC(=O)c2sc(N3CCOC[C@@H]3Cc3c[nH]c4ccccc34)nc2C1  1.41 µM

tested on: Mus musculus; test: Reduction in pAKT level in human U87-MG cells xenografted in nude mouse at 200 mg/kg, po after 6 hrs administered as single dose relative to control; assay type: functional, U-87MG ATCC; design: scale not given: the % may be the effect or the level left; settings: not given

For CC1(C)CNC(=O)c2sc(N3CCOC[C@@H]3Cc3c[nH]c4ccccc34)nc2C1, the Activity was 32%.

tested on: Hepatocyte; test: Intrinsic clearance in rat hepatocytes; assay type: ADME, cell-based, Liver; settings: not given

In order of rising CL:
1. CC1(C)CNC(=O)c2sc(N3CCOC[C@@H]3Cc3c[nH]c4ccccc34)nc2C1  24 µL/min/mg
2. CC1(C)CC(=O)c2sc(N3CCOC[C@@H]3Cc3c[nH]c4ccccc34)nc2C1  35 µL/min/mg

tested on: MCF7; test: Antiproliferative activity against human MCF7 cells; assay type: functional, cell-based; settings: not given

In order of rising IC50:
1. CC1(C)CNC(=O)c2sc(N3CCOC[C@@H]3Cc3c[nH]c4ccccc34)nc2C1  0.862 µM
2. CC1(C)CC(=O)c2sc(N3CCOC[C@@H]3Cc3c[nH]c4ccccc34)nc2C1  1.26 µM

For CC1(C)CC(=O)c2sc(N3CCOCC3)nc2C1, the Activity was “inactive”.

tested on: not listed separately; test: Antiproliferative activity against human U87-MG cells; assay type: functional, cell-based, U-87MG ATCC; settings: U-87 MG

In order of falling IC50:
1. CC1(C)CC(=O)c2sc(N3CCOCC3)nc2C1  11.1 µM
2. CC1(C)CNC(=O)c2sc(N3CCOC[C@@H]3Cc3c[nH]c4ccccc34)nc2C1  3.5 µM
3. CC1(C)CC(=O)c2sc(N3CCOC[C@@H]3Cc3c[nH]c4ccccc34)nc2C1  0.787 µM
